Experimental data from ChEMBL document CHEMBL3860091, “Synthesis and activity of newly designed aroxyalkyl or aroxyethoxyethyl derivatives of piperazine on the cardiovascular and the central nervous systems” (Bioorg Med Chem Lett, 2016).

What was measured:
[1] = molecular target: T1, Adrenergic receptor alpha-2 (Rattus norvegicus, UniProt P22086+P19328+P22909); experiment: Displacement of [3H]clonidine from alpha2 adrenergic receptor in rat brain cerebral cortex after 25 mins by microbeta scintillation counting method; type: tissue-based
T1 sequence (P22086 whole entry): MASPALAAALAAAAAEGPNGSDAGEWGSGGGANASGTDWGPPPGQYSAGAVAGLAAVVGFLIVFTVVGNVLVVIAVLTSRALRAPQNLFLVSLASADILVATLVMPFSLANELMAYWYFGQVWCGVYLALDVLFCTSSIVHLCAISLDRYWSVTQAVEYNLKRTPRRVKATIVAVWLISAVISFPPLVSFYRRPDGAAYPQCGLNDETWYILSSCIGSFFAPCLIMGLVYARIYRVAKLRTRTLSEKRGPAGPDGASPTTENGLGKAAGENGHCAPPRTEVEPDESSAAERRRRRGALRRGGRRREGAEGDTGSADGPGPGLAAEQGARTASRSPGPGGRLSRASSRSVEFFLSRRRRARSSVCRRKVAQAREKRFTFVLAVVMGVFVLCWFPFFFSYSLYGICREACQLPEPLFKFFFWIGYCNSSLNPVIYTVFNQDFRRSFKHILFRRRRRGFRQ
T1 sequence (P19328 whole entry): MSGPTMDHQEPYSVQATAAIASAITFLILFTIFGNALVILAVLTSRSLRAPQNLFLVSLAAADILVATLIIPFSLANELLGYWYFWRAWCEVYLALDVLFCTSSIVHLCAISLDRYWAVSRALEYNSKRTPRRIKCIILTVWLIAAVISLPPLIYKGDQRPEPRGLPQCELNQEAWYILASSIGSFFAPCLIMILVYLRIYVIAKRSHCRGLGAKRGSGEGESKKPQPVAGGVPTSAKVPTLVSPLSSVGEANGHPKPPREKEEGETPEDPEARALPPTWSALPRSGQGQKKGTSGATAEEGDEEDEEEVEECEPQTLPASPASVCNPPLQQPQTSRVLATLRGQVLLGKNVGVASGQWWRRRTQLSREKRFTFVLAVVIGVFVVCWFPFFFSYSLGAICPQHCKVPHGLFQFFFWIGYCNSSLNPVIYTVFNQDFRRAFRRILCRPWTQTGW
T1 sequence (P22909 whole entry): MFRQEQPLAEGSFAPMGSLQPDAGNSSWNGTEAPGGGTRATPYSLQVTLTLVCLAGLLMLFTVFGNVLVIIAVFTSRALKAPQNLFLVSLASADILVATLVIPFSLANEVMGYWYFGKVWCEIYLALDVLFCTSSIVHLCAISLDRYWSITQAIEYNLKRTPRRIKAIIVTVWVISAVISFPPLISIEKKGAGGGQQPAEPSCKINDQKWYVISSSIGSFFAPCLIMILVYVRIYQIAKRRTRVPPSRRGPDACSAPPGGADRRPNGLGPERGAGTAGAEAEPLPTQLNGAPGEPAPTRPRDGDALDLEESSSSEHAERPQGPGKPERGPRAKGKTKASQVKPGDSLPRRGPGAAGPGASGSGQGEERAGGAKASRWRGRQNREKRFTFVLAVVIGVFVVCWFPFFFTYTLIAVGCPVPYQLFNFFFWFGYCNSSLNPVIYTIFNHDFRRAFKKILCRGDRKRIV

Rattus norvegicus [2] = species on record: Rattus norvegicus; experiment: Selectivity ratio of Ki for rat brain cerebral cortex alpha2 adrenergic receptor to Ki for rat brain cerebral cortex alpha1 adrenergic receptor
[3] = molecular target: Adrenergic receptor alpha-1 (Rattus norvegicus) (UniProt P15823+P23944+P43140); experiment: Antagonist activity at alpha1 adrenergic receptor in Wistar rat aorta assessed as inhibition of naradrenaline-induced aortic contraction preincubated for 30 mins followed by naradrenaline stimulation for 3 hrs at 60 mins interval in presence of alpha2 adrenergic receptor blocker yohimbine and beta adrenergic receptor blocker propranolol
Rattus norvegicus [4] = experiment: Hypotensive activity in normotensive anesthetized Wistar rat assessed as systolic blood pressure at 1 mg/kg, iv measured 5 mins post dose (reference value: 107.4 to 148.3 mmHg); type: functional
Rattus norvegicus [5] = experiment: Hypotensive activity in normotensive anesthetized Wistar rat assessed as systolic blood pressure at 1 mg/kg, iv measured 30 mins post dose (reference value: 107.4 to 148.3 mmHg); type: functional
[6] = Antidepressant-like activity in albino Swiss (CD-1) mouse assessed as immobility time at 10 mg/kg, ip administered 30 mins prior to test measured for last 4 mins of 6 mins observation by forced swim test (reference value: 178.3 +/- 12.3 sec); type: functional, organism-based

Sequence of Adrenergic receptor alpha-1 (Rattus norvegicus) (P15823 whole entry, looked up): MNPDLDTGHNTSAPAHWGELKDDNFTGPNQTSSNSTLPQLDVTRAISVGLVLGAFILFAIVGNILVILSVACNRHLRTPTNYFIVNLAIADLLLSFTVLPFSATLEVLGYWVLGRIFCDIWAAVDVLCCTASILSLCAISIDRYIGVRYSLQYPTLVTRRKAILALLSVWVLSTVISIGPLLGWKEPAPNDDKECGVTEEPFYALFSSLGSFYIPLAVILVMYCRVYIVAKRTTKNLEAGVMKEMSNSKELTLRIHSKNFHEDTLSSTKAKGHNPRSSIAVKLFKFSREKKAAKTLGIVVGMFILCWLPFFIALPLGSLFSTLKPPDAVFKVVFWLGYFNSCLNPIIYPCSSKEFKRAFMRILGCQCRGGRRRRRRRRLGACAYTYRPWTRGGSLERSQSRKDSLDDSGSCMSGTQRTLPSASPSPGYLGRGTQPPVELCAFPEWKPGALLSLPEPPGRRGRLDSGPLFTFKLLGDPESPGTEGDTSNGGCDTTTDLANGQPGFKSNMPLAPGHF
Sequence of Adrenergic receptor alpha-1 (Rattus norvegicus) (P23944 whole entry, looked up): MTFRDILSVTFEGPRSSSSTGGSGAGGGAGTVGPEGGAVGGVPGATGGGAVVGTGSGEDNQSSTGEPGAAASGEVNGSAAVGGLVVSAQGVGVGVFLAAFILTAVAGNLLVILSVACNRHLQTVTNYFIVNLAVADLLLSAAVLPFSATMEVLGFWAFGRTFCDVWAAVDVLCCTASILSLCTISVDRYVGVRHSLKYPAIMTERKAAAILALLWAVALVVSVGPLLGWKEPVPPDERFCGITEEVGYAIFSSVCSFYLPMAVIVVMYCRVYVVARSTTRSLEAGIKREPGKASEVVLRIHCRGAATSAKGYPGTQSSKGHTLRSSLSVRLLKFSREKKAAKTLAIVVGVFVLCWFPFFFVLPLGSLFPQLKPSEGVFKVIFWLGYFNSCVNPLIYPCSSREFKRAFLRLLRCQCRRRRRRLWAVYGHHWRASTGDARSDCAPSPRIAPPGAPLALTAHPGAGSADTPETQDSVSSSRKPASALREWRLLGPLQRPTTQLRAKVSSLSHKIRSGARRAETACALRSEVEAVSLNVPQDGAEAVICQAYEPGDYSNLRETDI
Sequence of Adrenergic receptor alpha-1 (Rattus norvegicus) (P43140 whole entry, looked up): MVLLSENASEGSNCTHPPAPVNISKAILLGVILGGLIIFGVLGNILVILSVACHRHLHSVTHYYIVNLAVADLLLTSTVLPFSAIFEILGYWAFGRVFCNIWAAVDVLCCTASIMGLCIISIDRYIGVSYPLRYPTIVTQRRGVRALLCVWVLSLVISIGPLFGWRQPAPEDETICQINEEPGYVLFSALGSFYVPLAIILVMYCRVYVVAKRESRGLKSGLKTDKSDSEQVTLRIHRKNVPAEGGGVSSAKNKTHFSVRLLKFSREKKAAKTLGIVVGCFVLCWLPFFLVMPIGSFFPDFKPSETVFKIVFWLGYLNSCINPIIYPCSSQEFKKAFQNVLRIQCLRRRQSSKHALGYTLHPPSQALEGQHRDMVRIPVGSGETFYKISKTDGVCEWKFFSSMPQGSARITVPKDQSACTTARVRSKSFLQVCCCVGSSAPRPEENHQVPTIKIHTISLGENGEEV

Row | Structure (SMILES) | Ki [1] [nM] | Ratio Ki (Rattus norvegicus [2]) | inhibition [3] | pKb [3] | Activity (Rattus norvegicus [4]) [mmHg] | Activity (Rattus norvegicus [5]) [mmHg] | TIME [6] [h]
1 | Cc1cccc(Cl)c1OCCCCN1CCN(c2ccccc2)CC1.Cl.Cl | 505.7 | 8.48 | Dose-dependent effect | 8.37 | 129.3 | 123.5 | 0.0193
2 | COc1ccccc1N1CCN(CCOCCOc2cccc(C)c2C)CC1.Cl.Cl | 893 | 31.3 | Dose-dependent effect | 8.76 | 129.8 | 131 | 0.0331
3 | COc1ccccc1N1CCN(CCCCOc2c(C)cccc2C)CC1.Cl | 370.5 | 15.8 | Dose-dependent effect | 8.54 | 129.5 | 125.5 | 0.0398

Continued, in another order:

Row | Ki [1] [nM] | Ratio Ki (Rattus norvegicus [2]) | inhibition [3] | pKb [3] | Structure (SMILES) | Activity (Rattus norvegicus [4]) [mmHg] | Activity (Rattus norvegicus [5]) [mmHg] | TIME [6] [h]
4 | 810 | 24.6 | Dose-dependent effect | 7.97 | Cc1cccc(OCCCN2CCN(c3ccccc3)CC2)c1C.Cl.Cl | 143.8 | 135.8 | 0.048
5 | 289 | 1.82 | Dose-dependent effect | 8.75 | Cc1cccc(OCCN2CCN(c3ccccc3)CC2)c1C.Cl.Cl | 99.8 | 93 | 0.0446
